The values below are quoted from earlier work in US9012467B2, “Compositions for intratumoral administration” (Covidien LP, priority 2009, dated 2015).

This data set deals with mice. The settings on record: acute toxicity.

Turning to `COC(=O)C1=CO[C@@H](O)[C@@H]2C(CO)=CC[C@H]12` [Genipin, genipin], the LD50 i.v. is given as 382 mg/k.
